Laboratory results taken from US8318638B2, “Plant activator” (Shiseido Company, Ltd., priority 1999, dated 2012).

Key:
Format in all cases: in vivo
Eustoma russellianum = test: Growth promotion effect on Eustoma russellianum
lettuce = test: Growth promotion effect on lettuce; conditions: 50 μM aqueous solution sprayed five consecutive days
Protocol: One month after seeding of lettuce, spraying of a 50 μM specific ketol fatty acid (I) aqueous solution was carried out for five consecutive days, and growth of the lettuce (plant width) was observed.

broad bean = test: Growth promotion effect on broad bean; conditions: 50 μm aqueous solution sprayed five consecutive days
Protocol: One month after seeding of broad bean, spraying of a 50 μm specific ketol fatty acid (I) aqueous solution was carried out for five consecutive days, and growth of the broad bean (plant width) was observed.

[1] = system: morning glory (variety: murasaki); test: Growth promotion effect on morning glory; conditions: 100 μm aqueous solution sprayed; measured on the 16th day; N=8; FIG. 1
Protocol: Seeds of morning glory (variety: murasaki) (9 g) were subjected to concentrated sulfuric acid treatment for 20 minutes, and then allowed to stand under water flow overnight. Subsequently, the seeds were placed on wet sea sand such that the hila of the seeds were directed upward for 24 hours, to thereby produce roots. The seeds having roots were planted in sea sand at a position 1.5-2.0 cm below the surface of the sand, and then cultured under continuous light irradiation (for about five days).
The entire plant bodies of the morning glory having leaves produced through this culture were transferred into a culture solution [KNO2 (250 mg), NH4NO2 (250 mg), KH2PO4 (250 mg), MgSO4.7H2O (250 mg), MnSO4.4H2O (1 mg), Fe-citrate n-hydrate (6 mg), H3BO3 (2 mg), CuSO4.5H2O (0.1 mg), ZeSO4.7H2O (0.2 mg), Na2MoO4.2H2O (0.2 mg), and Ca(H2PO4)22H2O (250 mg) in distilled water (1,000 mL)].
Water or a 100 μm specific ketol fatty acid (I) aqueous solution was sprayed to the cultured morning glory, which was then placed in the dark overnight (for 14 hours). Thereafter, the morning glory was grown under continuous light irradiation at 25° C. for 16 days, and on the 16th day the height of the plant was measured (N=8). The average of the heights of the plants is shown in FIG. 1 [note: “I” shown in FIG. 1 refers to “specific ketol fatty acid (I)”; the same shall apply to the below-described Figs.].

[2] = system: Dianthus caryophyllus (feeling scarlet); test: Growth promotion effect on Dianthus caryophyllus; conditions: 100 μm aqueous solution sprayed once, 5 mL per plant; FIG. 11
Protocol: Seedlings of Dianthus caryophyllus (feeling scarlet) were planted in early October, and then grown by means of a customary method. In mid-April of the next year, spraying of a 100 μm specific ketol fatty acid (I) aqueous solution was carried out (5 mL per plant), and then the height of the plants was measured.

geranium = test: Growth promotion effect on geranium; conditions: 80 μM aqueous solution, five consecutive days then once a week for six weeks; mottled and non-mottled leaf types; five-and-a-half months after last spraying; FIG. 8
Protocol: Two weeks after seeding of geranium, spraying of an 80 μM specific ketol fatty acid (I) aqueous solution was carried out for five consecutive days. Furthermore, three months after the start of the test, spraying of an 80 μM specific ketol fatty acid (I) aqueous solution was carried out for six weeks (once a week). Two types of geranium; i.e., geranium having mottled leaves and geranium having leaves of no mottles, were subjected to the test. Five-and-a-half months after the last spraying, the size of the leaves was measured.

chrysanthemum = test: Growth promotion effect on chrysanthemum; conditions: 80 μM aqueous solution, five consecutive days then once a week for six weeks; four months after the last spraying; FIG. 7
Protocol: Two weeks after seeding of chrysanthemum, spraying of an 80 μm specific ketol fatty acid (I) aqueous solution was carried out for five consecutive days. Furthermore, three months after the start of the test, spraying of an 80 μM specific ketol fatty acid (I) aqueous solution was carried out for six weeks (once a week). Bolting was not observed at a nutrition growth stage of the chrysanthemum. Four months after the last spraying, the plant width was measured.

Seeds of lettuce = test: Dry stress suppressive effect on lettuce seeds (germination); conditions: for Number of germinated seeds: 50 seeds per group; for Germination rate (%: n = 50): seeds immersed 72 hours, dried in air 48 hours
Protocol: Seeds of lettuce (50 seeds per test group) were immersed in specific ketol fatty acid (I) aqueous solutions [concentration: 2 μM, 10 μM, 20 μM, and 0 μM (control)] for 72 hours, and dried in air for 48 hours. The resultant seeds were disposed on water-containing filter paper, and allowed to germinate. In each test group, germination rate—percentage (%) of germinated seeds with respect to the entirety of seeds—was obtained.

[3] = system: Oryza sativa L. (variety: koshihikari); test: Growth controlling effect on Oryza sativa L. seedlings (seed immersion)
Protocol: (1) Good-quality seeds of Oryza sativa L. (variety: koshihikari) (200 g) were immersed in water (800 mL) at 10° C. for 13 days. Thereafter, the seeds were equally divided into four groups, and the respective seed groups were immersed in specific ketol fatty acid (I) aqueous solutions (concentration: 0 μM, 1 μM, 10 μM, and 100 μM) (200 mL) at 30° C. for 1.5 days. The immersed seeds were planted in a four-divided seedbed tray, and grown under no light irradiation at 27° C. for three days. Subsequently, the grown seedlings were exposed to the typical outside environment. Six days after the exposure, 18 seedlings were randomly selected from each group, and the heights of the seedlings were measured, and then averaged. […] Subsequently, in consideration of practical handling of seedlings of Oryza sativa L., the effect of application of specific ketol fatty acid (I) was evaluated. […] In order to perform this evaluation, three weeks after the aforementioned light irradiation treatment, seedlings of each group were randomly selected, and the average of the proportions of the second leaves and third leaves was obtained. […] However, unlike the case of promotion of growth of the seedlings, the optimum concentration of the specific ketol fatty acid (I) aqueous solution is 1 μM.

CC/C=C\C/C=C\CC(=O)C(O)CCCCCCCC(=O)O (centres unmarked) [specific ketol fatty acid (I), 9-hydroxy-10-oxo-12(Z),15(Z)-octadecadienoic acid]
bolting (Eustoma russellianum; 50 μm aqueous solution sprayed to rosette leaves five consecutive days, three months after seeding): bolting was observed immediately after the spraying | plant width (Eustoma russellianum; 50 μm aqueous solution, observed for 48 days): did not increase as had been expected | plant height (Eustoma russellianum; 50 μm aqueous solution, observed for 48 days, FIG. 4): continued to increase 48 days after observation of growth | duration of growth promotion effect (lettuce): maintained 48 days after the start of the test | growth of the lettuce (plant width) (lettuce; one month after seeding, FIG. 2): exerts the effect of promoting growth of the lettuce | duration of growth promotion effect (broad bean): maintained 48 days after the start of the test | growth of the broad bean (plant width) (broad bean; one month after seeding, FIG. 3): exerts the effect of promoting growth of the broad bean | height of the plant [1]: becomes larger | height of the plants [2]: growth of the Dianthus caryophyllus plant was promoted | size of the leaves (geranium): growth of the leaves of these two types is promoted | plant width (chrysanthemum): increased significantly | Number of germinated seeds (Seeds of lettuce; 2 μM): 43 | Germination rate (%: n = 50) (Seeds of lettuce; 2 μM): 86% | Number of germinated seeds (Seeds of lettuce; 10 μM): 49 | Germination rate (%: n = 50) (Seeds of lettuce; 10 μM): 98% | Number of germinated seeds (Seeds of lettuce; 20 μM): 45 | Germination rate (%: n = 50) (Seeds of lettuce; 20 μM): 90% | optimum concentration of the aqueous solution for controlling growth of the third leaves ([3]; seed immersion, FIG. 13): 1 µM | heights of the seedlings (degree of growth promotion) ([3]; seeds immersed in 1 μM, 10 μM, 100 μM solutions at 30° C. for 1.5 days, six days after exposure, 18 seedlings, FIG. 12): commensurate with the application amount | growth of the third leaves (proportions of second and third leaves) ([3]; seeds immersed in 1, 10, 100 μM solutions, three weeks after light irradiation treatment, FIG. 13): exerts the effect of controlling growth of the third leaves
